{"source": "paper PMC11684029", "about": "“Discovery of VU6024578/BI02982816: An mGlu1 Positive Allosteric Modulator with Efficacy in Preclinical Antipsychotic and Cognition Models” (Journal of Medicinal Chemistry, 2024)", "key": {"[1]": {"molecular_target": "5-HT2B (Homo sapiens, UniProt P41595)", "sequence (P41595 whole entry)": "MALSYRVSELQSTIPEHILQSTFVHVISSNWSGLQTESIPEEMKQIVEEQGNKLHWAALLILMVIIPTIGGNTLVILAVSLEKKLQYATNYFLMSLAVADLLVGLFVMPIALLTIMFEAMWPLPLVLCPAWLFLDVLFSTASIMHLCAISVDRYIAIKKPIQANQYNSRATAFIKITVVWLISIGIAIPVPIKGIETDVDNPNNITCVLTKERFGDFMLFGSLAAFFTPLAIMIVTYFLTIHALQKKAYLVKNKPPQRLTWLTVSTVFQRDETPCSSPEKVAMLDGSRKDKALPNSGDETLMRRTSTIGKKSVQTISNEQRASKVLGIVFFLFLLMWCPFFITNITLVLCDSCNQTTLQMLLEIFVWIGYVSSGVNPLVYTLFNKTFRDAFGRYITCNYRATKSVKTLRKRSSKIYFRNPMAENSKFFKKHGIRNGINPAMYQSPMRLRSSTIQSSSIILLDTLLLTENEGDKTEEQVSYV", "experiment": "follow-up functional assay", "assay_type": "biochemical"}, "[2]": {"experiment": "intrinsic clearance, predicted hepatic clearance", "assay_type": "in vitro ADME, rat", "conditions": "in vitro predicted hepatic clearance", "procedure": "Human or rat hepatic microsomes (0.5 mg/mL) and 1 μM test compound were incubated in 100 mM potassium phosphate pH 7.4 buffer with 3 mM MgCl2 at 37 °C with constant shaking. After a 5 min preincubation, the reaction was initiated by addition of NADPH (1 mM). At selected time intervals (0, 3, 7, 15, 25, and 45 min), aliquots were taken and subsequently placed into a 96-well plate containing cold acetonitrile with internal standard (50 ng/mL carbamazepine). Plates were then centrifuged at 3000 rcf (4 °C) for 10 min, and the supernatant was transferred to a separate 96-well plate and diluted 1:1 with water for LC/MS/MS analysis. The in vitro half-life (T1/2, min, eq 1), intrinsic clearance (CLint, mL/min/kg, eq 2) and subsequent predicted hepatic clearance (CLhep, mL/min/kg, eq 3) was determined employing the following equations: [drawing 2] 1 where k represents the slope from linear regression analysis of the natural log percent remaining of test compound as a function of incubation time [drawing 3] 2\n^ascale-up factors: of 20 (human) or 45 (rat) [drawing 4] 3 where Qh (hepatic blood flow, mL/min/kg) is 21 (human) or 70 (rat)."}, "[3]": {"system": "C57Bl/6 mice", "experiment": "amphetamine-induced hyperlocomotion (mouse)", "assay_type": "in vivo", "procedure": "In parallel with the rat AHL study, we carried out a mouse AHL study to determine if the PK/PD relationship would remain intact across rodent species. Here, amphetamine was dosed to C57Bl/6 mice at 3 mg/kg s.c. to achieve ∼800 beam breaks, followed by the oral administration of 19d at 3, 10, and 30 mg/kg (Figure 8). […] Thus, mGlu1 has sufficient target coverage and PK/PD^24 is established for this paradigm in mouse and agree well with the PK/PD relationship established in rat for both NOR and AHL wherein free brain concentrations at or above the in vitro EC50 facilitates a significant pharmacodynamic response.\nFigure 8 Mouse amphetamine-induced hyperlocomotion and reversal by VU6024578 (19d). Amphetamine (3.0 mg/kg s.c.) induced robust hyperlocomotion, which was dose-dependently reversed by oral administration (0.5% Natrasol/0.015% tween 80 in H2O) of 19d. TEXT PRINTED IN THE PICTURE: VU6024578-09: Mean % reversal: -7.7 ± 32.6 (3 mg/kg i.p. + Amphetamine 3 mg/kg s.c.); Mean % reversal: 84.2 ± 10.2 (10 mg/kg i.p. + Amphetamine 3 mg/kg s.c.); Mean % reversal: 90.0 ± 12.7 (30 mg/kg i.p. + Amphetamine 3 mg/kg s.c.)\nAdult male C57/bl6 mice are placed in the activity chambers (Med Associates) to habituate. 90 min later the mice were administered VU6024578 (3–30 mg/kg i.p. Ten ml/kg) or vehicle (0.5% natrasol/0.015% Tween 80) and placed back in the activity chambers. Thirty minutes later the animals were administered Amphetamine (3 mg/kg) and placed back in the activity chambers for 1 h. The data for the studies were analyzed by a between-group 2 way analysis of variance for compound dose and time. Total ambulation from 125 to 180 min was analyzed by one-way ANOVA. Each dose group was compared with the vehicle control group. The calculations were performed and graphed using GraphPad Prism (version 4.03, GraphPad, La Jolla, CA)."}, "[4]": {"experiment": "plasma exposure in satellite mice", "assay_type": "in vivo", "conditions": "male, C57BL/6JRj, mouse, sc", "excerpt": "We have also employed here event-related potentials (ERPs) and auditory-evoked oscillations, which serve as critical translational biomarkers, to assess the impact of our investigational drug on sensory processing and cognitive functions, providing valuable data on its potential efficacy in treating disorders like schizophrenia. Detailed description of the methodology, setup specifications and recording procedure and analysis of the 40 Hz auditory steady-state response (ASSR) protocol can be found in Schuelert et al.[27] […] Reduced entrainment of gamma oscillation reflects abnormalities in basic sensory registration and processing but is also associated with impaired higher cognitive functions.[32] ASSR can also be reliably impaired preclinically by different NMDA receptor antagonists.[33],[34] […] Abnormalities associated with the filtering or “gating” of sensory information are among the most consistent findings in schizophrenia research.[35] N100 gating deficits also correlated with negative-cognitive deficits dimensions of schizophrenia[36] and can be modeled preclinically with NMDA receptor antagonists.[37]19d reversed N1 sensory gating deficit induced by MK-801 with the highest dose of 10 mg/kg (Figure 12B). Mean plasma exposures in satellite mice after subcutaneous administration of 19d at 0.8, 4, and 10 mg/kg were 187, 1207, and 2490 nM, respectively.\nMale C57BL/6JRj mice (12–14 weeks old, 28–30 g, n = 13–19 per treatment arm) (Janvier Laboratories, Le Genest-Saint-Isle, France) were group housed prior to surgery (four animals per cage) and single housed after surgery under standard light-dark conditions (12 h/12 h, lights on 06:00–18:00) with food and tap water available ad libitum. C57BL/6JRj mice were used as they are well suited for neurophysiological cortical network investigations using EEG techniques (Schuelert et al., 2018). […]"}, "[5]": {"molecular_target": "T1, Adenosine A1 (Homo sapiens, UniProt P30542)", "T1 construct": "Eurofins", "T1 sequence (P30542 whole entry)": "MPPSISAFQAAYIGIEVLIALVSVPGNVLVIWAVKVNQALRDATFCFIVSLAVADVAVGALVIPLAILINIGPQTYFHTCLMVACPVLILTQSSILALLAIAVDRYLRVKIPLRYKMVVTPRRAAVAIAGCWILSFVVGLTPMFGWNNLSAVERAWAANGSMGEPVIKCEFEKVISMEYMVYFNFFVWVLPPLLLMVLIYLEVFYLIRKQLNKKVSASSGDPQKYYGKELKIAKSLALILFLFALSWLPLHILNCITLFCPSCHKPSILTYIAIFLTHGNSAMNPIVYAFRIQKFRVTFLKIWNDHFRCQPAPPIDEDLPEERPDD", "experiment": "Eurofins radioligand binding panel", "conditions": "antagonist radioligand", "excerpt": "(§1) Table S1. Eurofins Lead Profiling Screen Data\n(§2) This is a radioligand binding panel of 80 targets including GPCRs, ion channels, transporters and nuclear hormones. Biochemical assay results are presented as the percent inhibition of specific […]\n(§3) Results showing an inhibition or stimulation higher than 50% are considered to represent significant effect and are highlighted […]\nTarget / Protein Species % Inhibition at 10"}, "[6]": {"molecular_target": "T2, AT1 (Homo sapiens, UniProt P30556)", "T2 construct": "Eurofins", "T2 sequence (P30556 whole entry)": "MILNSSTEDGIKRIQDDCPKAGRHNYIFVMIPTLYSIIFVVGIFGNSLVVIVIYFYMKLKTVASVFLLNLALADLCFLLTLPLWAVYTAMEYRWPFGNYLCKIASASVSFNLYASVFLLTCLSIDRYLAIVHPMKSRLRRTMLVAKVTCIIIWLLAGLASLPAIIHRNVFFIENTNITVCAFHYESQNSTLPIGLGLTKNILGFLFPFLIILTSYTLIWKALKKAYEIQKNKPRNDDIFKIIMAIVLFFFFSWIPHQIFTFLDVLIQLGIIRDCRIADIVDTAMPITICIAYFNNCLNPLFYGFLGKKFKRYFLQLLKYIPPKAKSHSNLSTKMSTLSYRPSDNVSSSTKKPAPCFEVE", "experiment": "Eurofins radioligand binding panel", "conditions": "antagonist radioligand", "excerpt": "as §1, §2, §3\n(§4) Target / Protein Species % Inhibition at 10 […]"}, "[7]": {"molecular_target": "T3, Adenosine A3 (Homo sapiens, UniProt P0DMS8)", "T3 construct": "Eurofins", "T3 sequence (P0DMS8 whole entry)": "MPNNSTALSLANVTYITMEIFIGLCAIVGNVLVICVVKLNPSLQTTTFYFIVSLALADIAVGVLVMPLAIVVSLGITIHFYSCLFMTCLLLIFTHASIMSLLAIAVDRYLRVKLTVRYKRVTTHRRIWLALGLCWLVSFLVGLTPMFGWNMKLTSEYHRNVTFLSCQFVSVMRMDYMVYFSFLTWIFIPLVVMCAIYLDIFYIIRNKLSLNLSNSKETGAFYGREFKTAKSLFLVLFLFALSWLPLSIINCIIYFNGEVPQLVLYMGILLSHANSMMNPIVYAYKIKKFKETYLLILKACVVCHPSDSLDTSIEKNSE", "experiment": "Eurofins radioligand binding panel", "conditions": "agonist radioligand", "excerpt": "as §1, §2, §3, §4"}, "[8]": {"molecular_target": "T4, Adrenergic beta 2 (Homo sapiens, UniProt P07550)", "T4 construct": "Eurofins", "T4 sequence (P07550 whole entry)": "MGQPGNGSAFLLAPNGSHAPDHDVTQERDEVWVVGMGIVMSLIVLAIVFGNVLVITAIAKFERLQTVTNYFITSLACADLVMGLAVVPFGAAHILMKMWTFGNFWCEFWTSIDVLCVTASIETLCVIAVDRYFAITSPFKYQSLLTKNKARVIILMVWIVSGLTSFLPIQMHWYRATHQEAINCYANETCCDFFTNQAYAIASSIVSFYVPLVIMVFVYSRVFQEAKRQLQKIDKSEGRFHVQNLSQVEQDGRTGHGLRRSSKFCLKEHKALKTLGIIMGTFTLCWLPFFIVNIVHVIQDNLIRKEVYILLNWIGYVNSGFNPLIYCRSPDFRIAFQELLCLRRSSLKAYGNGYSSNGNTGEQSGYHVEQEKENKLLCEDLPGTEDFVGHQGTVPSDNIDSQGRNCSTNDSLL", "experiment": "Eurofins radioligand binding panel", "conditions": "antagonist radioligand", "excerpt": "as §1, §2, §3, §4"}, "[9]": {"molecular_target": "T5, BZD (peripheral) (Rattus norvegicus, UniProt P16257)", "T5 construct": "Eurofins (panel run as a service)", "experiment": "Eurofins radioligand binding panel", "conditions": "antagonist radioligand", "excerpt": "as §1, §2, §3, §4"}}, "note": "“And” between values parts separate entries of the source, which are not always exact repeats. Identical values can stand only once.", "data": [{"smiles": "Cn1nc(-c2ccnn2C)cc1CNC(=O)c1cc(-c2ccco2)ccc1Cl", "note": "[Compound 19d, 2-Chloro-N-((1,2′-dimethyl-1H,2’H-[3,3′-bipyrazol]-5-yl)methyl)-5-(furan-2-yl)benzamide]", "values": [{"measurement": "functional activity at 5-HT2B", "setting": "[1]", "value": "inactive"}, {"measurement": "CLhep, rat", "setting": "[2]", "value": "39 mL/min/kg and 39.3 mL/min/kg"}, {"measurement": "reversal of AHL, in words", "setting": "[3]; 3 mg/kg", "value": "no reversal"}, {"measurement": "Mean % reversal of AHL", "setting": "[3]; 3 mg/kg i.p.", "value": "-7.7 ± 32.6", "unit": "%"}, {"measurement": "reversal of AHL, in words", "setting": "[3]; 10 mg/kg", "value": "Full reversal"}, {"measurement": "Mean % reversal of AHL", "setting": "[3]; 10 mg/kg i.p.", "value": "84.2 ± 10.2", "unit": "%"}, {"measurement": "reversal of AHL, in words", "setting": "[3]; 30 mg/kg", "value": "Full reversal"}, {"measurement": "Mean % reversal of AHL", "setting": "[3]; 30 mg/kg i.p.", "value": "90.0 ± 12.7", "unit": "%"}, {"measurement": "concentration at 60 min", "setting": "[4]; 0.8 mg/kg s.c.", "value": 187, "unit": "nM"}, {"measurement": "concentration at 60 min", "setting": "[4]; 4 mg/kg s.c.", "value": 1210, "unit": "nM"}, {"measurement": "concentration at 60 min", "setting": "[4]; 10 mg/kg s.c.", "value": 2490, "unit": "nM"}, {"measurement": "inhibition at 10 µM", "setting": "[5]", "value": 8, "unit": "%"}, {"measurement": "inhibition at 10 µM", "setting": "[6]", "value": -1, "unit": "%"}, {"measurement": "inhibition at 10 µM", "setting": "[7]", "value": 23, "unit": "%"}, {"measurement": "inhibition at 10 µM", "setting": "[8]", "value": -1, "unit": "%"}, {"measurement": "inhibition at 10 µM", "setting": "[9]", "value": 96, "unit": "%"}]}]}
